# Source: US20090104157A1, “UTILIZATION OF BACTERIOPHAGE TO CONTROL BACTERIAL CONTAMINATION IN FERMENTATION PROCESSES” (E. I. du Pont de Nemours and Company, priority 2007, published 2009)
# Experiments:
# L. plantarum ATCC 8014 = test: Growth of L. plantarum in MRS broth by optical density (Example 1); format: cell-based, Lactobacillus plantarum; conditions: 1 ppm, after 40 hours of incubation
# From the text: Lactobacillus plantarum is a bacterium commonly isolated from contaminated fuel ethanol fermentation. In this example, a spectrophotometer was used to quantify the growth of L. plantarum in laboratory media. The use of a spectrophotometer allowed rapid determination of bacterial levels by optical density. The optical density indicates the amount of light (at a wavelength of 450 nm) absorbed by a sample. High levels of bacterial growth in a sample well result in higher optical density.
# L. plantarum ATCC 8014 was cultured overnight in MRS broth (available from Difco, Sparks, Md.) at 30° C. Stocks of L. plantarum ATCC 8014 bacteriophage (bacteriophage cocktail is referred to in the Examples as “B-8014”) were prepared and titered using the overlay method (Adams, M. H. The Bacteriophages, Interscience Publishers, New York, 1959) with MRS agar. Since bacteriophage (phage) are viruses, they are unable to replicate outside of their bacterial host. Therefore, to enumerate phage, cultures of host bacteria were prepared and mixed with dilutions of phage. These mixtures were placed onto a petri dish containing agar and incubated overnight. The presence of clear zones on “lawns” of bacteria indicated phage infection. These clear zones are known as “plaques” and therefore, phage levels are commonly referred to as plaque forming units per milliliter (PFU/ml). […]
# [1] = system: Lactobacillus plantarum ATCC 8014 in corn mash; test: Level of L. plantarum in inoculated corn mash by plating on MRS agar (Example 2); format: cell-based; conditions: 3 ppm
# Procedure: Samples of corn mash were collected from a commercial fuel ethanol plant. The corn mash was collected immediately after liquefaction, prior to entry into fermentation. Corn mash samples were frozen upon arrival and defrosted for use in experiments. Lactobacillus plantarum ATCC 8014 was cultured overnight in MRS broth (Difco, Sparks, Md.). Samples of corn mash were inoculated with L. plantarum at approximately 10^4 CFU/ml. This level of bacterial contamination is common in fuel ethanol plants. L. plantarum bacteriophage (B-8014) were prepared and titered using the overlay method on MRS agar (as described in Example 1). One sample of corn mash received no treatment. A second sample was treated by the addition of 3 parts per million (ppm) of Penicillin G. Three additional samples were treated with phage at a bacteria to phage ratio of 1:1, 1:10, and 1:100. All mash samples were incubated at 33° C., the temperature at which commercial fermentation takes place. The level of bacteria remaining in the test samples was determined by decimal dilutions in phosphate-buffered saline followed by plating of these dilutions onto plates of MRS agar. Plates were incubated overnight at 33° C. and colonies were enumerated.
smiles,measurement,setting,value
CC1(C)S[C@@H]2[C@H](NC(=O)Cc3ccccc3)C(=O)N2[C@H]1C(=O)O [Penicillin G],optical density at 450 nm compared with control wells,L. plantarum ATCC 8014,higher
same,reduction of growth of L. plantarum,L. plantarum ATCC 8014,not effective
same,effect on growth of L. plantarum,[1],did not affect or control growth
same,Log CFU/ml at 0 hours,[1]; 33° C.,4.86 Log CFU/ml
same,Log CFU/ml at 24 hours,[1]; 33° C.,9.09 Log CFU/ml
same,Log CFU/ml at 40 hours,[1]; 33° C.,9.19 Log CFU/ml
